Experimental data from publication PMC7961996, “Small Immunomodulatory Molecules as Potential Therapeutics in Experimental Murine Models of Acute Lung Injury (ALI)/Acute Respiratory Distress Syndrome (ARDS)” (International Journal of Molecular Sciences, 2021).

Tests used:
LPS-induced ALI mice = assay: LPS-induced ALI murine model; assay type: in vivo, C57BL6/J mice
Description: (§1) For the mouse efficacy studies, both AVR-25 and AVR-48 were reconstituted in 0.9% sterile normal saline to give a final concentration of 10 mg/kg; 125 µL was administered intraperitoneally (IP) for hyperoxia- and LPS- induced lung injury, and IV via the lateral tail vein for CLP-induced lung injury. Imipenem (Primaxin®) was formulated in sterile 0.9% saline solution and administered subcutaneously (SC) at a dose of 5 mg/kg to mice in a 0.2 mL volume near the dorsal scapular region for CLP-induced lung injury study. LPS was dissolved in sterile 0.9% saline solution and 100 µL was administered intratracheally for the ALI study.
(§2) Three models of ALI were used in the current study: hyperoxia-, LPS-, and CLP-induced lung injury: LPS-induced ALI was induced by administering a one-time intratracheal instillation of LPS (100 µg in a volume of 100 µL). Animals were sacrificed after 24 h following LPS administration while two doses of AVR-25 and AVR-48 were administered (10 mg/kg, IP) at 4 h and 12 h following LPS dosing. Hyperoxia-induced ALI was initiated by keeping the mice in cages in airtight polypropylene chamber exposed to hyperoxia (100% oxygen) for 48 h, following a standard protocol. Two doses of AVR-25 and AVR-48 were administered (10 mg/kg, IP) at 4 h and 12 h following hyperoxia exposure, and mice were sacrificed after 48 h.
(§3) At the end of the experimental time points for all the above groups, the mice were euthanized with an overdose of a cocktail of xylazine (100 mg/kg)/ketamine (10 mg/kg, IP) and BALF and lung tissues were harvested for further analysis. Male mice were used for all the ALI experiments.
(§4) BALF was obtained from the anesthetized mice by cannulating the upper part of the trachea with a blunt 22-gauge needle and then by lavaging three times with 1.0 mL of cold PBS (pH 7.4). The fluid recovery rate was about 90%. Lavaged samples were kept on ice, and the BALF was centrifuged at 4 °C. Total cell counts in BALF were determined using the TC20 automated cell counter (Bio-Rad Laboratories, Inc., Hercules, CA, USA). The differential cell counts were performed on cytospin preparations after staining with the Hema 3 differential Staining kit (Fisher Scientific, Kalamazoo, MI, USA). Total protein concentration in the BALF was measured using the Pierce^TM BCA assay kit (Fisher Scientific Co, Houston, TX, USA), as previously described.
(§5) Lung endothelium permeability was determined by measuring the accumulation of Evans blue in the lungs, as previously described. In brief, Evans blue dye (EBD) solution (Sigma-Aldrich, Inc., St. Louis, MO, USA, 5 mg/mL) was injected into the tail vein at a concentration of 50 mg/kg before 30 min of the experimental time point. At the experimental time points, lungs were excised and weighed. EBD was extracted in 2 mL formamide kept in a water bath at 60 °C for 3 h, and the samples were centrifuged at 500 g for 10 min. The absorption of light at 595 nm was measured spectrophotometrically (Microplate reader, Bio-Rad Laboratories, Hercules, CA, USA) with the supernatants.
(§6) Interleukin (IL)-6, IL-1β, and IL-10 were quantified on BALF while E-selectin was quantified in lung homogenate using commercially available DuoSet® ELISA kits (R&D Systems, Minneapolis, MN, USA) according to the manufacturer’s instructions, as previously described. Briefly, Nalgene Nunc Maxisorp™ plates were coated overnight with antibodies to IL-6 (2 µg/mL), IL-1β (2 µg/mL) IL-10 (2 µg/mL), or E-selectin (2 µg/mL) and the following morning plates were washed and blocked for 2 h. Samples were added to the wells at various dilutions and then incubated with detection antibody for 2 h. Plates were subsequently washed, and streptavidin-HRP conjugate antibody was added to each well for 20 min. […]

[1] = test system: hyperoxia-induced ALI mice; assay: Hyperoxia-induced ALI murine model; assay type: in vivo, C57BL6/J mice
Description: as §1, §2, §3, §4, §5, §6

[2] = 10 mg/kg IP at 4 h and 12 h after LPS, 24 h, vs untreated ALI mice
[3] = 10 mg/kg IP x2, ELISA, vs non-treated ALI mice
[4] = 10 mg/kg IP at 4 h and 12 h of hyperoxia (100% oxygen), 48 h

## CC(=O)N[C@H]1[C@H](Oc2ccc([N+](=O)[O-])cc2)O[C@H](CO)[C@@H](O)[C@@H]1O [AVR-48, N-((2S,3R,4R,5S,6R)-4,5-dihydroxy-6-(hydroxymethyl)-2-(4-nitrophenoxy)tetrahydro-2H-pyran-3-yl) acetamide]
LPS-induced ALI mice; 10 mg/kg IP at 4 h and 12 h after LPS, 24 h, ELISA, Western blot
  pro-inflammatory cytokines IL-1β and IL-6 levels in BALF and lung tissues: decreased
LPS-induced ALI mice; [2]
  neutrophil cell counts in BALF: decreased counts
  total inflammatory cell counts in BALF: decreased counts
LPS-induced ALI mice; 10 mg/kg IP x2
  Evans Blue dye leak concentration in the lungs: diminished levels
  expression of lung adhesion molecules ICAM-1, VCAM-1, and E-selectin in whole lung tissue: decreased expression
  total proteins in BALF (pulmonary edema): diminished levels
LPS-induced ALI mice; 10 mg/kg IP x2, 0-4 scoring, vs ALI mice without treatment
  lung injury score (H&E): decreased lung injury scores
LPS-induced ALI mice; [3]
  IL-10 levels in BALF: further increase
LPS-induced ALI mice; 10 mg/kg IP x2, Western blot
  expression of cleaved caspase-3 in lungs (lung cell death): reduced expression
  expression of endothelial AJ proteins VE-cadherin and β-catenin in whole lungs: increased expression
[1]; [4]
  neutrophils infiltration into the lung (BALF): diminished
  total immune cells infiltration into the lung (BALF): diminished
[1]; 10 mg/kg IP x2
  Evans Blue dye leak concentration in the lungs: diminished levels
  expression of lung adhesion molecules ICAM-1, VCAM-1, and E-selectin in whole lung tissue: decreased expression
  total proteins in BALF (pulmonary edema): diminished levels
[1]; 10 mg/kg IP x2, 48 h, vs untreated ALI mice
  levels of pro-inflammatory cytokines (IL-1β, IL-6) in BALF and lung tissues: decreased levels
[1]; 10 mg/kg IP x2, 0-4 scoring
  lung injury (H&E, injury score): improved lung injury
[1]; [3]
  IL-10 levels in BALF: further increase
[1]; 10 mg/kg IP x2, Western blot
  expression of cleaved caspase-3 in lungs (lung cell death): reduced expression
  expression of endothelial AJ proteins VE-cadherin and β-catenin in whole lungs: increased expression
  expression of phosphorylated-Src in whole lungs: decreased expression
